Data from patent publication US20260092074A1, “Annelated Pyridines as Steroidogenesis Inhibitors, Preparation Method and Use Thereof” (Guangzhou Vinnocent Pharmaceutical Limited, priority 2022, published 2026).

Experiments:
human CYP11B2 = target: T1, human CYP11B2 (Homo sapiens, UniProt P19099); experiment: Inhibition of hCYP11B2 in transfected V79 cells; assay type: cell-based; settings: hamster V79 cells expressing human CYP11B2; substrate 11-deoxycorticosterone 200 nM
T1 construct: expressed in transfected cells
T1 sequence (P19099 25-503): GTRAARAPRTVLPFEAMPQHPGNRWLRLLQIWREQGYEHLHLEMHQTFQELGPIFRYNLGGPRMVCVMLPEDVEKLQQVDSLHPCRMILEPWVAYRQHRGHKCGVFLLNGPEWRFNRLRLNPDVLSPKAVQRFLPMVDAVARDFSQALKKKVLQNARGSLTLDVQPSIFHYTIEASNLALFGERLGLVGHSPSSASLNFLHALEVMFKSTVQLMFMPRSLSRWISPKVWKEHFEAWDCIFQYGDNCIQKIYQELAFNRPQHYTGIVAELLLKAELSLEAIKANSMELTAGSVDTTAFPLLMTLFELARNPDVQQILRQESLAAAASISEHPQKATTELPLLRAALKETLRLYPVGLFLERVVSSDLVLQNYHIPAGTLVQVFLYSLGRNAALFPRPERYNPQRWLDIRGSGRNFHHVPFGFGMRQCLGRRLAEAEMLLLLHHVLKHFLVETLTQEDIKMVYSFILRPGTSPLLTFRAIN
In short: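 The substrate (200 nM, 30 min) was added after a 2 hour compound pre-incubation in lentivirus-transduced V79 cells stably expressing human CYP11B2 plus rat NADPH-P450 reductase.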

human CYP11B1 = target: T2, human CYP11B1 (Homo sapiens, UniProt P15538); experiment: Inhibition of hCYP11B1 in transfected V79 cells; assay type: cell-based; settings: hamster V79 cells expressing human CYP11B1; substrate 11-deoxycortisol 200 nM
T2 construct: expressed in transfected cells
T2 sequence (P15538 25-503): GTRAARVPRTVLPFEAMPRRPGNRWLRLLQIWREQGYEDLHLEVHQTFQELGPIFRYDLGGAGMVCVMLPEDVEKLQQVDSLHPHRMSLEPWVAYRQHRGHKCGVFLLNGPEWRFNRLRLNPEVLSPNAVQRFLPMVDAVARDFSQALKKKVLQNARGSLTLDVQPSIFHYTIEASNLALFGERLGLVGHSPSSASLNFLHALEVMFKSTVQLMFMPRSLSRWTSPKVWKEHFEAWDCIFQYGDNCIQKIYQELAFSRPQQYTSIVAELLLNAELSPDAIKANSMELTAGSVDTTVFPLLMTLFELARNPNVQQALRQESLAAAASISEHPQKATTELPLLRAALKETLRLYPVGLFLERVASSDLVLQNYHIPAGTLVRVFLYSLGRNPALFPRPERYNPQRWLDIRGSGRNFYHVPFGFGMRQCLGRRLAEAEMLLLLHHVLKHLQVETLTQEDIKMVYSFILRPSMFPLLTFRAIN
In short: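 Reactions started with 200 nM 11-deoxycortisol, ran for 30 min and were stopped with ethyl acetate, after a 2 h compound preincubation. The host was stably transfected V79 hamster cells carrying human CYP11B1 plus rat P450 reductase. Percent inhibition, from LC-MS/MS or HPLC (260 nm) quantitation of substrate and product, gave the IC50.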

Row | IC50 (human CYP11B2) [nM] | IC50 (human CYP11B1) [nM] | SMILES
1 | 593 | 746 | Cn1c(=O)c(=O)[nH]c2cncc(-c3ccc(F)cc3)c21 [N2, 8-(4-Fluorophenyl)-1-methyl-1,4-dihydropyrido[3,4-b]pyrazine-2,3-dione]
2 | 311 | 394 | CN1CCNc2cncc(-c3ccc(C#N)cc3)c21 [N3, 4-(1-Methyl-1,2,3,4-tetrahydropyrido[3,4-b]pyrazin-8-yl)benzonitrile]
3 | 7.8 | 48 | CN1CCN(C(=O)c2ccc(F)cc2)c2cncc(-c3ccc(C#N)cc3)c21 [N5, 4-(4-(4-Fluorobenzoyl)-1-methyl-1,2,3,4-tetrahydropyrido[3,4-b]pyrazin-8-yl)benzonitrile]
4 | 655 | 661 | Cn1cnc2cncc(-c3ccc(C#N)cc3)c21 [N6, 4-(1-Methyl-1H-imidazo[4,5-c]pyridin-7-yl)benzonitrile]
5 | 679 | 453 | N#Cc1ccc(-c2cncc3ncn(C4CC4)c23)cc1 [N7, 4-(1-Cyclopropyl-1H-imidazo[4,5-c]pyridin-7-yl)benzonitrile]
6 | 0.13 | 0.56 | N#Cc1ccc(-c2cncc3c2OCCN3S(=O)(=O)c2ccc(F)cc2)cc1 [O2, 4-(4-((4-Fluorophenyl)sulfonyl)-3,4-dihydro-2H-pyrido[4,3-b][1,4]oxazin-8-yl)benzonitrile]
7 | 0.14 | 0.1 | N#Cc1ccc(-c2cncc3c2OCCN3S(=O)(=O)c2cccc(F)c2)cc1 [O3, 4-(4-((3-Fluorophenyl)sulfonyl)-3,4-dihydro-2H-pyrido[4,3-b][1,4]oxazin-8-yl)benzonitrile]
8 | 0.2 | 0.41 | CS(=O)(=O)N1CCOc2c(-c3ccc(C#N)cc3)cncc21 [O14, 4-(4-(Methylsulfonyl)-3,4-dihydro-2H-pyrido[4,3-b][1,4]oxazin-8-yl)benzonitrile]
9 | 23.1 | 1350 | N#Cc1ccc(-c2cncc3c2OCCN3C(=O)c2ccc(F)cc2)cc1 [O19, 4-(4-(4-Fluorobenzoyl)-3,4-dihydro-2H-pyrido[4,3-b][1,4]oxazin-8-yl)benzonitrile]
10 | 25.2 | 1730 | N#Cc1ccc(-c2cncc3c2OCCN3C(=O)c2cccc(F)c2)cc1 [O20, 4-(4-(3-Fluorobenzoyl)-3,4-dihydro-2H-pyrido[4,3-b][1,4]oxazin-8-yl)benzonitrile]

Second part, the compound before the results:

Row | SMILES | IC50 (human CYP11B2) [nM] | IC50 (human CYP11B1) [nM]
11 | CN1CCN(S(=O)(=O)c2ccc(C#N)cc2)c2cncc(-c3ccc(C#N)cc3)c21 [N4, 4-((8-(4-Cyanophenyl)-1-methyl-2,3-dihydropyrido[3,4-b]pyrazin-4 (1H)-yl)sulfonyl)benzonitrile] | 0.6 | 5.2
12 | N#Cc1ccc(-c2cncc3c2OCCN3S(=O)(=O)c2ccccc2)cc1 [O1, 4-(4-(Phenylsulfonyl)-3,4-dihydro-2H-pyrido[4,3-b][1,4]oxazin-8-yl)benzonitrile] | 0.16 | 0.22
13 | Cc1ccc(S(=O)(=O)N2CCOc3c(-c4ccc(C#N)cc4)cncc32)cc1 [O4, 4-(4-Tosyl-3,4-dihydro-2H-pyrido[4,3-b][1,4]oxazin-8-yl)benzonitrile] | 0.1 | 0.1
14 | Cc1cccc(S(=O)(=O)N2CCOc3c(-c4ccc(C#N)cc4)cncc32)c1 [O5, 4-(4-(m-Tolylsulfonyl)-3,4-dihydro-2H-pyrido[4,3-b][1,4]oxazin-8-yl)benzonitrile] | 0.23 | 0.48
15 | N#Cc1ccc(-c2cncc3c2OCCN3S(=O)(=O)c2ccc(Cl)cc2)cc1 [O6, 4-(4-((4-Chlorophenyl)sulfonyl)-3,4-dihydro-2H-pyrido[4,3-b][1,4]oxazin-8-yl)benzonitrile] | 0.41 | 0.66
16 | N#Cc1ccc(-c2cncc3c2OCCN3S(=O)(=O)c2cccc(Cl)c2)cc1 [O7, 4-(4-((3-Chlorophenyl)sulfonyl)-3,4-dihydro-2H-pyrido[4,3-b][1,4]oxazin-8-yl)benzonitrile] | 0.47 | 0.12
17 | COc1ccc(S(=O)(=O)N2CCOc3c(-c4ccc(C#N)cc4)cncc32)cc1 [O8, 4-(4-((4-Methoxyphenyl)sulfonyl)-3,4-dihydro-2H-pyrido[4,3-b][1,4]oxazin-8-yl)benzonitrile] | 0.02 | 0.02
18 | N#Cc1ccc(-c2cncc3c2OCCN3S(=O)(=O)c2ccc([N+](=O)[O-])cc2)cc1 [O9, 4-(4-((4-Nitrophenyl)sulfonyl)-3,4-dihydro-2H-pyrido[4,3-b][1,4]oxazin-8-yl)benzonitrile] | 0.11 | 1.1
19 | N#Cc1ccc(-c2cncc3c2OCCN3S(=O)(=O)c2cccc([N+](=O)[O-])c2)cc1 [O10, 4-(4-((3-Nitrophenyl)sulfonyl)-3,4-dihydro-2H-pyrido[4,3-b][1,4]oxazin-8-yl)benzonitrile] | 0.41 | 2.8
20 | N#Cc1ccc(-c2cncc3c2OCCN3S(=O)(=O)c2ccc(C(F)(F)F)cc2)cc1 [O11, 4-(4-((4-(Trifluoromethyl)phenyl)sulfonyl)-3,4-dihydro-2H-pyrido[4,3-b][1,4]oxazin-8-yl)benzonitrile] | 0.04 | 2
21 | N#Cc1ccc(-c2cncc3c2OCCN3S(=O)(=O)c2cccc(C(F)(F)F)c2)cc1 [O12, 4-(4-((3-(Trifluoromethyl)phenyl)sulfonyl)-3,4-dihydro-2H-pyrido[4,3-b][1,4]oxazin-8-yl)benzonitrile] | 0.18 | 0.74
22 | N#Cc1ccc(-c2cncc3c2OCCN3S(=O)(=O)c2cccnc2)cc1 [O13, 4-(4-(Pyridin-3-ylsulfonyl)-3,4-dihydro-2H-pyrido[4,3-b][1,4]oxazin-8-yl)benzonitrile] | 0.48 | 0.31
23 | N#Cc1ccc(-c2cncc3c2OCCN3S(=O)(=O)c2cccc3cccnc23)cc1 [O15, 4-(4-(Quinolin-8-ylsulfonyl)-3,4-dihydro-2H-pyrido[4,3-b][1,4]oxazin-8-yl)benzonitrile] | 0.25 | 1.46
24 | N#Cc1ccc(-c2cncc3c2OCCN3S(=O)(=O)c2cccs2)cc1 [O16, 4-(4-(Thiophen-2-ylsulfonyl)-3,4-dihydro-2H-pyrido[4,3-b][1,4]oxazin-8-yl)benzonitrile] | 0.56 | 0.04
25 | N#Cc1ccc(-c2cncc3c2OCCN3S(=O)(=O)c2cccc3ccccc23)cc1 [O17, 4-(4-(Naphthalen-1-ylsulfonyl)-3,4-dihydro-2H-pyrido[4,3-b][1,4]oxazin-8-yl)benzonitrile] | 0.39 | 6.5
26 | N#Cc1ccc(-c2cncc3c2OCCN3S(=O)(=O)c2ccc3ccccc3c2)cc1 [O18, 4-(4-(Naphthalen-2-ylsulfonyl)-3,4-dihydro-2H-pyrido[4,3-b][1,4]oxazin-8-yl)benzonitrile] | 0.2 | 0.91
27 | N#Cc1ccc(-c2cncc3c2OCCN3C(=O)c2ccccc2F)cc1 [O21, 4-(4-(2-Fluorobenzoyl)-3,4-dihydro-2H-pyrido[4,3-b][1,4]oxazin-8-yl)benzonitrile] | 26.1 | 1130
28 | COc1ccc(C(=O)N2CCOc3c(-c4ccc(C#N)cc4)cncc32)cc1 [O22, 4-(4-(4-Methoxybenzoyl)-3,4-dihydro-2H-pyrido[4,3-b][1,4]oxazin-8-yl)benzonitrile] | 108 | 3400
29 | COc1cccc(C(=O)N2CCOc3c(-c4ccc(C#N)cc4)cncc32)c1 [O23, 4-(4-(3-Methoxybenzoyl)-3,4-dihydro-2H-pyrido[4,3-b][1,4]oxazin-8-yl)benzonitrile] | 29.5 | 516
30 | N#Cc1ccc(-c2cncc3c2OCCN3C(=O)c2ccc(C(F)(F)F)cc2)cc1 [O24, 4-(4-(4-(Trifluoromethyl)benzoyl)-3,4-dihydro-2H-pyrido[4,3-b][1,4]oxazin-8-yl)benzonitrile] | 19.7 | 85.6
31 | N#Cc1ccc(-c2cncc3c2OCCN3C(=O)c2cccc(C(F)(F)F)c2)cc1 [O25, 4-(4-(3-(Trifluoromethyl)benzoyl)-3,4-dihydro-2H-pyrido[4,3-b][1,4]oxazin-8-yl)benzonitrile] | 18.1 | 476
